Test results from publication PMC12714101, “CD160-Derived Peptide as a Bidirectional Inhibitor Toward Immune Checkpoints BTLA/HVEM and HVEM/LIGHT” (Journal of Medicinal Chemistry, 2025).
Values joined by “and” are separate entries in the source; they are usually repeats but may differ in a detail not shown here. Equal entries are not always repeated. Where a SMILES comes first, the peptide text is derived from it.

How the values were obtained:
[1] = test system: BTLA/HVEM interaction; assay: Cellular reporter assay, HVEM reporter cells (JE6.1-NF-κB::eGFP) stimulated with TCS-BTLA; assay type: cell-based, human; conditions: 30 min preincubation, 24 h coculture, NF-κB::eGFP by flow cytometry, mean of four independent experiments in duplicate
Protocol: In the next step of the study, the inhibitory properties of the designed peptides were evaluated using previously described cell-based assays. The experiment utilized reporter cells expressing HVEM (JE6.1-NF-κB::eGFP) and T cell stimulator cells expressing BTLA (TCS-BTLA). Activation of the reporter cells by TCS followed a two-signal model. The first is generated through the interaction between the T cell receptor–cluster of differentiation 3 (TCR–CD3) complex on the surface of the reporter cells and a membrane-bound antihuman CD3 single-chain antibody fragment (mAb aCD3) expressed on the TCS cells. The second signal is provided by the binding of HVEM and BTLA, which in this assay results in a strong costimulatory signal via HVEM. Activation of the reporter cells leads to the expression of nuclear factor kappa light chain enhancer of activated B cells (NF-κB), which correlates with the level of enhanced green fluorescent protein (eGFP), measured by flow cytometry. In the absence of peptides, NF-κB expression is normalized to 100%. Disruption of the BTLA/HVEM interaction by peptides results in a concentration-dependent decrease in NF-κB levels. In this study, HVEM-expressing reporter cells were stimulated with BTLA-expressing TCS cells in the presence or absence of tested peptides at three different concentrations.
(§1) Cellular studies were performed in the same procedure as we described previously for gD- and BTLA-derived peptides. , The peptides were dissolved in the medium, and their final concentrations in wells were 150, 50, and 16,7 μM. Briefly, reporter cells expressing HVEM (JE6.1-NF-κB::eGFP) (5 × 10^4 cells/well) were preincubated with peptides for 30 min in a 96-well flat-bottom plate. Subsequently, the second cell line expressing BTLA (TCS BTLA) or LIGHT (TCS LIGHT) (2 × 10^4 cells/well) was added and cocultured for 24 h at 37 °C in an atmosphere of 5% CO2. Next, an APC-conjugated mCD45.2 antibody to exclude TCS from the reporter cells was added. The expression of the reporter gene (eGFP) was measured via flow cytometry using a CytoFLEX flow cytometer (Beckman Coulter Inc., Brea, CA, USA), and the results were analyzed using FlowJo v10.10 (FlowJo LLC, Ashland, OR, USA). The data were analyzed using GraphPad Prism 8 software (San Diego, CA, USA).

[2] = test system: HVEM/LIGHT interaction; assay: Cellular reporter assay, HVEM reporter cells (JE6.1-NF-κB::eGFP) stimulated with TCS LIGHT; assay type: cell-based, human; conditions: 24 h coculture, three experiments
Protocol: These findings prompted us to investigate whether the peptide is also capable of inhibiting the binding of HVEM to its ligand–the LIGHT protein. Accordingly, ELISA and cell-based assays were conducted under the same conditions as those used for the BTLA/HVEM complex, with the exception that LIGHT was used instead of BTLA.
as §1

[3] = NMR in PBS-buffered aqueous solution (aggregation); assay type: physicochemical; conditions: 298 K, 2 mM sample
Protocol: First, circular dichroism (CD) spectra were recorded for this peptide in H2O and phosphate-buffered saline (PBS). In water, the peptide adopts a disordered structure, characterized by a minimum at 197 nm. In contrast, in PBS, it undergoes conformational ordering, forming a β-strand structure with a minimum at 214 nm and maximum at 197 nm. […] To further investigate the peptide’s structure, nuclear magnetic resonance (NMR) spectra were acquired in both buffer-free aqueous solution and PBS-buffered aqueous solution. […] Narrow amide proton chemical shift dispersion (ΔδHN = 0.7 ppm), absence of medium- and long-range nuclear Overhauser effects (NOEs), and ^3JNα coupling constants indicate a lack of well-defined secondary structure (Figures S9 and S10). […] Molecular dynamics simulations with NOE-derived distance restraints generated an ensemble of structures showing high conformational diversity. […]
NMR spectra were acquired at 298 K on Bruker spectrometers (^1H 700.55 MHz, 16.4 T and 500.13 MHz, 11.7 T). […] The ^1H–^13C HSQC spectrum was recorded at the natural abundance of the ^13C isotope. […] Spectra were processed and analyzed, respectively, with Topspin 4.4.1 (Bruker, Ettlingen, Germany) and NMRFAM-Sparky software packages. […]

CC[C@@H]1NC(=O)[C@@H](NC(=O)[C@H](CCC(N)=O)NC(=O)[C@H](Cc2ccc(O)cc2)NC(C)=O)CSSC[C@@H](C(=O)N[C@@H](Cc2c[nH]cn2)C(=O)N[C@@H](Cc2ccccc2)C(=O)N[C@@H](Cc2ccccc2)C(N)=O)NC(=O)[C@H](CCC(N)=O)NC(=O)[C@H](CC(C)C)NC(=O)[C@H](CCCNC(=N)N)NC(=O)[C@H]([C@@H](C)CC)NC(=O)CNC(=O)[C@H](CO)NC(=O)[C@H](CCCCN)NC(=O)[C@H](CCC(N)=O)NC(=O)[C@H](CO)NC(=O)[C@H](CCCNC(=N)N)NC(=O)[C@H](C)NC1=O [A5, CD160(110–128) ^(C113X,G125C)] (HELM PEPTIDE1{[ac].Y.Q.C.[Abu].A.R.S.Q.K.S.G.I.R.L.Q.C.H.F.F.[am]}$PEPTIDE1,PEPTIDE1,4:R3-17:R3$$$V2.0)
Inhibition - Cellular assay 16.67 µM ([1]; peptide 16.67 μM): ~14% and 14.03% | Inhibition - Cellular assay 50 µM ([1]; peptide 50 μM): 59.04% | Inhibition - Cellular assay 150 µM ([1]; peptide 150 μM): 80.42% | Inhibition of NF-κB activation, HVEM/LIGHT cell-based assay, 16.67 μM ([2]; peptide 16.67 μM): 13% | Inhibition of NF-κB activation, HVEM/LIGHT cell-based assay, 50 μM ([2]; peptide 50 μM): 34% | Inhibition of NF-κB activation, HVEM/LIGHT cell-based assay, 150 μM ([2]; peptide 150 μM): 72% | Aggregation in PBS (NMR signal broadening) [3]: peptide aggregation
